Columns and labels:
V2122 [1] = biological target: T1, V2122 (Streptomyces avidinii, UniProt P22629, E125D/E140N/N47D/N73G/R108K/R127K/S51D/S69N/Y107S/Y46S); test: ITC binding analysis of V2122 and compounds; settings: 25 μM V2122, PBS, 25° C.
T1 construct: T7-Tag; made in house
Protocol: Microcal iTC200 (MicroCal, Northampton, Mass.) was used for the measurement.
For the measurement, concentration of the stock solutions was adjusted to a ten-fold concentration of V2122 to be measured. Into a cell of a calorimeter, 25 μM of V2122 was placed, and each solution was added dropwise at a stirring speed of 1000 rpm at 25° C. Obtained data was analyzed using ORIGIN, and the titration curve was fitted based on the one-site binding isotherm.

V2122 [2] = biological target: T1, V2122; test: SPR analysis of affinity between V2122 and compound; type: binding
Protocol: Interaction of V2122, which is a LISA314 modified protein purified as described above, with Compound C was investigated by surface plasmon resonance (SPR). More specifically, using Biacore T200 (GE Healthcare BioScience Corp.) as a measuring instrument, and Sensor Chip NTA (GE Healthcare BioScience Corp.) as a sensor chip, the protein was immobilized on the sensor chip by way of His-Tag having been fused to the core protein. The running buffer was prepared using HBS-P(+), as described in the manual. A two-fold dilution series was prepared in nine steps by diluting a 1600 nM solution using the running buffer. The affinity was measured in the kinetics mode, and acquired data was subjected to equilibrium analysis using Biacore T200 Evaluation Software to determine the affinity.

[3] = system: human Burkitt lymphoma Ramos tumor; test: In vivo imaging, Ramos heterotransplantation model; parameters: species or system nude mice; settings: pre-mixed with the antibody, intravenous
Protocol: The thus purified Rituximab-scFv-V2122 was preliminarily mixed with Psyche F-IRDye 800 (Compound 44 in Example) dissolved in DMSO (final concentration is ten-fold molar concentration), and incubated on ice for 10 minutes. The buffer was then replaced with Japanese Pharmacopoeia physiological saline (Otsuka Pharmaceutical Co., Ltd.) using Zeba Spin Desalting Column (Thermo Fisher Scientific Inc.).
(§1) Ramos cell suspension and Matrigel Matrix (Corning) were mixed in a ratio of 1:1 (5×10^6 cells/0.1 mL), and 0.1 mL of the mixed liquid was administered subcutaneously in the left side of 5 to 6-week-old female nude mice (Sankyo Labo Service Corporation, Inc.). The mice were bred for several weeks to produce tumor. One week before imaging, the feed was switched to a low fluorescence feed (iVid #1, Oriental Yeast Co., Ltd.) and the breeding was continued. […]
Rituximab-scFv-V2122 antibody (25 μg, 50 μg, 100 μg), preliminarily labeled with fluorescence by reacting it with Psyche F-IRDye 800 (Compound 44 in Example), was intravenously administered to nude mice having established human Burkitt lymphoma Ramos. For investigation into accumulation in tumor, accumulation of IRDye 800 in the tumor was evaluated 2, 24 and 48 hours after the administration, using in vivo photo-imaging instrument Clairvivo OPT plus (Shimadzu Corporation) (FIG. 19).

DLD1 tumor = test: In vivo imaging, DLD1 heterotransplantation model; parameters: species or system nude mice; settings: pre-mixed with the antibody, intravenous
Protocol: The thus purified anti-epiregulin scFv-V2122 was mixed with Psyche F-IRDye 800 (Compound 44 in Example) dissolved in DMSO (final concentration was ten-fold molar concentration), and the mixture was incubated on ice for 10 minutes. The buffer was then replaced with Japanese Pharmacopoeia physiological saline (Otsuka Pharmaceutical Co., Ltd.) using Zeba Spin Desalting Column (Thermo Fisher Scientific Inc.) and was stored under cooling. Epiregulin IgG was labeled using ICG Labeling Kit-NH2 (Dojindo Laboratories).
as §1, with “Suspension liquid of human colorectal cancer-derived DLD1” for “Ramos”, “cell” for “cell suspension”
Anti-epiregulin scFv-V2122 antibody (25 μg, 50 μg, 100 μg) preliminarily labeled with fluorescence by allowing it to react with Psyche F-IRDye 800 (Compound 44 in Example), or fluorescent-labeled epiregulin IgG (50 μg) was intravenously administered to nude mice having established DLD1 tumor. […]

Rituximab-scFv-V2122 = test: Flow cytometry: binding of FITC-labeled compound to Rituximab-scFv-V2122 on RAMOS cell; type: cell-based; settings: RAMOS cells pre-incubated with Rituximab-scFv-V2122; compound 3 nM, 10 nM, 30 nM
Protocol: The thus refolded and purified Rituximab-scFv-V2122 was evaluated regarding binding potential with RAMOS (human Burkitt lymphoma) cell (JCRB Cell Bank), which is a CD20 positive cell. More specifically, Rituximab-scFv-V2122 was diluted with PBS into three concentrations (0.05, 0.5, 5 μg/mL). 1×10^6 cells were placed in a 1.5 mL tube, centrifuged at 400×g for 4 minutes, and the supernatant was discarded to collect the cells. The collected cells were added with 100 μL of the diluted Rituximab-scFv-V2122, mixed well, and then incubated on ice for 30 minutes. The content was centrifuged again, the supernatant was discarded, added with 1 mL of PBS to wash the cells, and the cells were then collected. […] After the incubation, the content was centrifuged again, the supernatant was discarded, added with 1 mL of PBS to wash the cells, and the cells were then collected. The collected cells were suspended in 500 μL of PBS, and measured on a flow cytometer (guava easyCyte Single System; Merck Millipore).

T1 sequence (P22629 37-163 Y46S/N47D/S51D/S69N/N73G/Y107S/R108K/E125D/R127K/E140N): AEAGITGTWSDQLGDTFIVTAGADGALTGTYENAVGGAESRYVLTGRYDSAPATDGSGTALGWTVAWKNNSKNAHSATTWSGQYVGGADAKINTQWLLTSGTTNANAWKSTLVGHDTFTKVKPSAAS

**Q.** How did the “interaction with V2122 measured by ITC” value (V2122 [1]) turn out when `O=C(O)CCCC[C@@H]1SC[C@@H]2NC(=O)N[C@@H]21` [biotin, reference compound] was run?
**A.** The value was “non-interactive”.

**Q.** Which “interaction with V2122 measured by ITC” value (V2122 [1]) does the source give for `N=C1N[C@H]2[C@H](CS[C@H]2CCCCC(=O)NCCCCCC(=O)NCCNC(=O)CCCCCNC(=O)CCCC[C@@H]2SC[C@@H]3NC(=N)N[C@@H]32)N1` [Compound 7, (3aS,3a′S,4S,4′S,6aR,6a′R)-4,4′-(5,12,17,24-Tetraoxo-6,13,16,23-tetraazaoctacosane-1,28-diyl)bis[tetrahydro-1H-thieno[3,4-d]imidazole-2(3H)-iminium] di(2,2,2-trifluoroacetate)] here?
**A.** The value was “exothermic, suggesting a strong binding”.

**Q.** And the Kd (V2122 [2])?
**A.** Its Kd is 3.15 nM.

**Q.** What does the source list for `COC(=O)[C@H](CCCCNC(=O)c1cc(NC(=O)NCCOCCOCCNC(=O)CCCCC[N+]2=C(/C=C/C3=C(Oc4ccc(S(=O)(=O)O)cc4)C(=C/C=C4/N(CCCCS(=O)(=O)O)c5ccc(S(=O)(=O)O)cc5C4(C)C)/CCC3)C(C)(C)c3cc(S(=O)(=O)[O-])ccc32)cc(C(=O)NCCCC[C@H](NC(=O)CCCC[C@@H]2SC[C@@H]3NC(=N)N[C@@H]32)C(=O)OC)c1)NC(=O)CCCC[C@@H]1SC[C@@H]2NC(=N)N[C@@H]21` [Compound 44, 1-(1-((3,5-Bis(((S)-5-(5-((3aS,4S,6aR)-2-iminohexahydro-1H-thieno[3,4-d]imidazole-4-yl)pentanamido)-6-methoxy-6-oxohexyl)carbamoyl)phenyl)amino)-1,12-dioxo-5,8-dioxa-2,11-diazaheptadecane-17-yl)-2-((E)-2-((E)-3-(2-((E)-3,3-dimethyl-5-sulfo-1-(4-sulfobutyl)indoline-2-ilidene)ethylidene)-2-(4-sulfophenoxy)cyclohex-1-ene-1-yl)vinyl)-3,3-dimethyl-3H-indol-1-ium-5-sulfonate]?
**A.** binding with Rituximab-scFv-V2122 antibody in vivo [3]: remain bound in vivo; binding with anti-epiregulin scFv-V2122 antibody in vivo (DLD1 tumor): remain bound in vivo

**Q.** For `N=C1N[C@H]2[C@H](CS[C@H]2CCCCC(=O)NCCCCCC(=O)Nc2cc(NC(=O)CCCCCNC(=O)CCCC[C@@H]3SC[C@@H]4NC(=N)N[C@@H]43)cc(C(=O)NCCOCCOCCNC(=S)Nc3ccc4c(c3)C(=O)OC43c4ccc(O)cc4Oc4cc(O)ccc43)c2)N1` [FITC-labeled Compound B], which “binding with Rituximab-scFv-V2122, shifts of fluorescence intensity” value (Rituximab-scFv-V2122) is on record?
**A.** Its value is “concentration-dependent shifts of fluorescence intensity were also confirmed”.

— patent US11161884B2 (SAVID THERAPEUTICS INC., priority 2014, dated 2021)
